Patent US4394375A, “Cephalosporin derivatives, and compositions containing them” (Beecham Group Limited, priority 1980, dated 1983)
≈ marks a conversion by molar mass, not a printed value. Read-outs that look alike come from different tables or passages of the source.

Tests used:
Format in all cases: cell-based
P. mirabilis C 977 = experiment: MIC, P. mirabilis C 977; details: Proteus mirabilis, C977
E. coli JT 4 = experiment: MIC, E. coli JT 4; details: Escherichia coli, JT4
K. aerogenes A = experiment: MIC, K. aerogenes A; details: Klebsiella aerogenes
E. cloacae Nl = experiment: MIC, E. cloacae Nl; details: Enterobacter cloacae
S. marcescens US 32 = experiment: MIC, S. marcescens US 32; details: Serratia marcescens, US32
E. coli NCTC 10418 = experiment: MIC, E. coli NCTC 10418; details: Escherichia coli, NCTC10418
E. coli JT 425 = experiment: MIC, E. coli JT 425; details: Escherichia coli, JT425
Ps aeruginosa NCTC 10662 = experiment: MIC, Ps aeruginosa NCTC 10662
P. rettgeri = experiment: MIC, P. rettgeri; details: Providencia rettgeri
P. morganii = experiment: MIC, P. morganii; details: Morganella morganii
Ps aeruginosa Dalgleish = experiment: MIC, Ps aeruginosa Dalgleish; details: Ps aeruginosa Dalgleish 10^-2
P. mirabilis 889 = experiment: MIC, P. mirabilis 889; details: Proteus mirabilis
E. coli ESS = experiment: MIC, E. coli ESS; details: Escherichia coli
S. aureus Oxford = experiment: MIC, S. aureus Oxford; details: Staphylococcus aureus
S. aureus Russell = experiment: MIC, S. aureus Russell; details: Staphylococcus aureus
N. catarrhalis 1502 = experiment: MIC, N. catarrhalis 1502
B. subtilis = experiment: MIC, B. subtilis; details: Bacillus subtilis
S. pyogenes CN 10 = experiment: MIC, S. pyogenes CN 10; details: Streptococcus pyogenes, CN10
S. faecalis I = experiment: MIC, S. faecalis I; details: Enterococcus faecalis
[1] = Ps aeruginosa NCTC 10662, read-out: MIC

Row | Structure (SMILES) | MIC (P. mirabilis C 977) [µg/mL] | MIC (E. coli JT 4) [µg/mL] | MIC (K. aerogenes A) [µg/mL] | MIC (E. cloacae Nl) [µg/mL] | MIC (S. marcescens US 32) [µg/mL] | MIC (E. coli NCTC 10418) [µg/mL] | MIC (E. coli JT 425) [µg/mL] | MIC (Ps aeruginosa NCTC 10662; Ps aeruginosa NCTC 10662 10^-2) [µg/mL] | MIC (Ps aeruginosa NCTC 10662; [1]) [µg/mL] | MIC (P. rettgeri) [µg/mL] | MIC (P. morganii) [µg/mL] | MIC (Ps aeruginosa Dalgleish) [µg/mL] | MIC (P. mirabilis 889) [µg/mL] | MIC (E. coli ESS) [µg/mL] | MIC (S. aureus Oxford) [µg/mL] | MIC (S. aureus Russell) [µg/mL] | MIC (N. catarrhalis 1502) [µg/mL] | MIC (B. subtilis) [µg/mL] | MIC (S. pyogenes CN 10) [µg/mL] | MIC (S. faecalis I) [µg/mL]
1 | CCN1CCN(C(=O)N[C@@H](C(=O)N[C@]2(CO)C(=O)N3C(C(=O)O)=C(CSc4nnnn4C)CS[C@@H]32)c2ccccc2)C(=O)C1=O [Example 4, 7β-[2(4-Ethyl-2,3-dioxopiperazine-1-carbonylamino)-2-phenylacetamido]-7α-hydroxymethyl-3-(1-methyl-1H-tetrazol-5-ylthio)methylceph-3-em-4-carboxylic acid] | 5 (≈ 7.58 µM) | 5 (≈ 7.58 µM) | 0.2 (≈ 0.303 µM) | 25 (≈ 37.9 µM) | 5 (≈ 7.58 µM) | 1 (≈ 1.52 µM) | 1 (≈ 1.52 µM) | > 100 | > 100 | 25 (≈ 37.9 µM) | 10 (≈ 15.2 µM) | 100 (≈ 152 µM) | 2.5 (≈ 3.79 µM) | < 0.02 |  |  |  |  |  | 
2 | CCN1CCN(C(=O)N[C@@H](C(=O)N[C@]2(CO)C(=O)N3C(C(=O)O)=C(COC(C)=O)CS[C@@H]32)c2ccccc2)C(=O)C1=O [Example 1d, Sodium 7β-[2(4-ethyl-2,3-dioxpiperazine-1-carbonylamino)]phenylacetamido-7α-hydroxymethylcephalosporanate] | 2.5 | 5 | 0.5 | 10 | 5 | 2.5 | 2.5 | > 100 | > 100 | 10 | 10 | > 100 | 1 | < 0.02 | > 100 | > 100 | 0.2 | > 100 | 100 | > 100
3 | CCN1CCN(C(=O)N[C@@H](C(=O)N[C@]2(CO)C(=O)N3C(C(=O)O)=C(COC(C)=O)CS[C@@H]32)c2ccc(O)cc2)C(=O)C1=O [Example 3b, Sodium 7β-[2-(4-ethyl-2,3-dioxopiperazine-1-carbonylamino)-2-(4-hydroxyphenyl)acetamido]-7α-hydroxymethylcephalosporanate] | 2.5 | 2.5 | 0.25 | 10 | 5 | 1 | 1 | 50 | 50 | 10 | 10 | 25 | 0.5 | 0.05 | > 100 | > 100 | 0.5 | > 100 | > 100 | > 100
